Experimental data as given in US10556926B2, “Synthetic artificial peptides with antimicrobial effect” (priority 2014, dated 2020).
Where two headings read alike, the source gives them in different places. No end group written: not given here.

Columns and labels:
E. coli ML-35p [1] = experiment: Kinetics of permeabilization of the outer bacteria membrane (nitrocefin); type: cell-based, Escherichia coli
Method: (§1) The ability of the antimicrobial peptides for the respective permeabilization of the outer and inner bacteria membrane was tested by way of example on E. coli ML-35p (made available by Dr. R. E. Lehrer, Center for Health Sciences, Los Angeles, Calif., USA). The peptides were incubated in serial dilution with E. coli ML-35p and the time-dependent release of cell-internal components was measured in a slightly modified protocol according to Ericsson et al. (2002). For this purpose, the bacteria were cultured in Luria-Bertani (LB) medium with 100 μg/ml ampicillin (Fluka, Taufkirchen, Germany) until reaching an optical density of 0.4 at 600 nm wavelength. Then, the cells were washed three times by centrifugation at 4000 g for 1 min and subsequent up-take in 10 mM HEPES buffer pH 7.2. Finally, the cells were diluted to an optical density of 0.3 at 600 nm wavelength. To measure the permeabilization of the outer membrane, nitrocefin (Merck, Darmstadt, Germany) was diluted in HEPES buffer to a concentration of 60 μg/ml. The antimicrobial peptides were diluted in HEPES buffer to an end concentration of 12 μM, 24 μM, 48 μM and 96 μM end concentration. In the next step, 50 μl of nitrocefin were admixed with 50 μl of antimicrobial peptide and 50 μl of bacteria suspension such that an end concentration of 20 μg/ml of nitrocefin, 4 μM to 32 μM of antimicrobial peptide and bacteria with an optical density of 0.1 to 600 nm were present. The samples were mixed and the absorption at 500 nm wavelength was measured directly over a period of at least 90 min at 37° C. with regular shaking in a FLUOstar omega Microplate Reader (BMG Labtech, Ortenberg, Germany). The investigation of the permeabilization of the inner membrane was carried out in the same way except that instead of the nitrocefin accordingly 0-nitrophenyl-beta-D-galactoside (ONPG, Sigma-Aldrich) in an end concentration of 100 μg/ml was used and the absorption change was determined at a wavelength of 420 nm. The control used was samples without antimicrobial peptide, the positive control used for the membrane permeabilization was polymyxin B (Sigma-Aldrich) in an end concentration of 5 μM. For the data evaluation, firstly the measurement values of the corresponding negative controls were deducted from the measurement values of the samples, and the difference was then divided by the corresponding measurement values of the permeabilization control. Then, a graphical evaluation was carried out, the calculated values being plotted against the peptide concentration and being fitted with the help of the Origin Pro 8.1 G Software (OriginLab) according to a sigmoidal model.
(§2) As comparison parameter between the peptides, the times were ascertained from this at which 50% of the final signal level was reached. For this purpose, the equation with the percentage membrane permeabilization y, the time x in minutes, the lower plateau A1, the upper plateau A2, the point of inflection Log X0 and the Hill incline p
(§3) [formula] was used. The calculation of the parameters A1, A2, Log X0 and p was performed by the program by reference to the compensating curve. Further resolution of equation 5.1 for the case y=50 then produced for x the desired time at which the half-maximum signal level was reached.

E. coli ML-35p [2] = experiment: Kinetics of permeabilization of the inner bacteria membrane (ONPG); type: cell-based, Escherichia coli
Method: as §1, with “model. As representative examples, FIGS. 4 and 5 show the graphical evaluation for the kinetic investigation of the permeabilization of the outer E. coli bacteria membrane for the peptides N4 (FIG. 4) and O1 (FIG. 5).” for “model.”
as §2, §3

[3] = tested on: human histiocytic lymphoma cell line U937; experiment: Long-term growth inhibition, minimum toxic concentration (MTC)
Method: The cytotoxic potential of the antimicrobial peptides was determined by way of example by reference to the human histiocytic lymphoma cell line U937 (DSMZ). The influence of the peptides on the permeability of the cell membrane and their longer-term growth-inhibiting effect was investigated. 15 ml of RPMI 1640 medium with 2 mM glutamine and 10% FCS (Biochrom, Berlin, Germany) were inoculated with 1·10^5 cells per ml and cultivated for three days at 37° in T75 cell culture bottles (TPP, Trasadingen, Switzerland) with constant gassing with 5% CO2 in a climatically controlled chamber. The medium was admixed with 10 U/ml penicillin and […] streptomycin (both AppliChem, Darmstadt, Germany) to avoid bacterial contaminations, with no further antibiotics being added during the subsequent recultivation. Before each experiment, the cells were washed by centrifugation at 100 g for five minutes and subsequent resuspension in RPMI 1640 medium with 2 mM glutamine and 10% FCS in each case two times and adjusted to a concentration of 1·10^5 cells per ml. Finally, in each case 100 μl of the U937 cells were transferred to the reaction chambers of a sterile 96-well polypropylene microtiter plate and admixed with in each case 100 μl of a prediluted antimicrobial peptide in RPMI 1640 medium without antibiotic addition, such that end concentrations of in each case 5·10^4 cells per ml at peptide concentrations between 0.25 μM and 64 μM were present. The negative control used was samples without antimicrobial peptide, while Triton X-100 (AppliChem) was used in an end concentration of 5% as positive control for the permeabilization. The samples were cultivated for two hours at 37° C. and with continuous gassing with 5% CO2 in a climatically controlled chamber. Then, in each case 100 μl of each sample were removed and transferred to new sterile microtiter plates for determining the direct membrane damage. The remaining 100 μl of the samples were cultivated for at least four further days.
For this purpose, 10 μl of lysing solution were added to in each case 100 μl of cell suspension and incubated for 60 minutes at 37° C. Then, the cell culture supernatants were investigated as described above. The lowest peptide concentration at which complete suppression of the cell growth was established after four days was stipulated as the minimum toxic concentration (MTC).

E. coli DH5α = details: DH5α, 18 h
Method: (§4) The minimum inhibitory concentration (MIC) of the peptides was carried out by way of example against gram(−) E. coli DH5α (and gram(+) Staphylococcus xylosus (both Deutsche Sammlung von Mikroorganismen and Zellkulturen, DSMZ) in a standardized microdilution method according to the general guidelines of the CLSI (Clinical and Laboratory Standards Institute 2006) and EUCAST (European Committee for Antimicrobial Susceptibility Testing of the European Society of Clinical Microbiology and Infectious Diseases 2003) with slight adaptations to the investigation of cationic antimicrobial peptides (Wiegand et al. 2008). The bacteria cells were cultivated in Mueller-Hinton-Boullion (MHB) to an optical density of 0.4 to 0.6 at 600 nm wavelength, corresponding to about 4·10^8 bacteria per ml. Then, the bacteria cultures were diluted to a bacteria concentration of about 1·10^5 bacteria per ml in sterile MHB. Using the peptides, series of 2-fold dilutions starting at 128 μM to the smallest dilution of 0.5 μM in MHB were prepared. The peptide dilutions were mixed with the dilute bacteria cultures in a […] in the chambers of a 96-well polypropylene microtiter plate (Starlab, Hamburg, Germany), so that the peptides were present in an end concentration between 64 μM and 0.25 μM at a bacteria concentration of 5·10^4 bacteria/ml. Sterile MHB served as negative control, and the positive control used as the corresponding bacteria concentration in MHB without the addition of peptide. The microtiter plates were incubated for 18 hours at 37° C. with shaking at 120 rpm in a climatically controlled chamber. After the incubation, the bacteria concentration was determined by renewed absorption measurement at a wavelength of 600 nm.

Staphylococcus xylosus = details: 18 h
Method: as §4

[4] = tested on: human histiocytic lymphoma cell line U937; experiment: Cytotoxicity, direct membrane damage (CytoTox 96), LD50; type: cell-based; details: U937, two hours at 37° C., 0.25-64 μM
Method: The direct membrane damage was investigated with the help of the CytoTox 96 Non-Radioactive Cytotoxicity Assay (Promega, Mannheim, Germany). For this purpose, the cells were sedimented at 100 g for ten minutes at 4° C., and 50 μl of the resulting culture supernatant were added to 50 μl of the CytoTox substrate mix. After an incubation time of 30 minutes in the dark at room temperature, 50 μl of the CytoTox stopping solution were added to the sample and the absorption was measured at 490 nm. To determine the LD50 value, the measurement value of the negative control was deducted from the absorption values and divided by the measurement value of the permeabilization control. The calculated values were plotted graphically against the peptide concentration and fitted using the Origin pro 8.1 G Software according to a sigmoidal model and the LD50 values were ascertained from this. The calculation was carried out analogously to example 5 by reference to the solution of equation 5.1 for the case y=50, where y in this case corresponds to the relative cytotoxicity in percent and x corresponds to the peptide concentration in μM. Representative graphical evaluations of LD50 values are shown in FIG. 6 by reference to the measurement results for the reference peptides BMAP-27, protamine and KL-helix, and also the peptide O1 according to the invention.

human cell line U937 = experiment: Mixed culture experiment (bacterially contaminated cell culture), eukaryotic cells; type: cell-based; details: 25 and 50 μM peptide, two hours, with S. xylosus
Method: Destruction of the bacteria membranes by the antimicrobial peptides was investigated in a flow cytometric method with the help of a living/dead staining method in combination with an internal calibration and counting system. For this purpose, SYBR Green I (Sigma-Aldrich) was used as total staining and propidium iodide (Sigma-Aldrich) was used as contrast staining for membrane-damaged bacteria. […] The flow analysis was carried out on a Cytomics FC500 Instrument (Beckmann Coulter, Munich, Germany) equipped with an argon laser (488 nm) and the corresponding emission filters for SYBR Green I (525 nm) and propidium iodide (620 nm). […] Then, the mixture was incubated for 10 min in the dark at room temperature and then measured by flow cytometry. The number of events in each gate was captured and evaluated using the CXP Analyses 2.2 Software. The total number of living and dead bacteria was calculated. […]
The ability of the antimicrobial peptides to be used as a therapeutic active ingredient was investigated by reference to its selective antimicrobial properties in model mixed culture experiments. […] Then, the mixed cell cultures were stained and measured by flow cytometry as described in example 3, the measurement scale being adapted to the measurement of the larger eukaryotic cells.

Substance: GRFKRFRKKFKKLFKKLSPVIPLLHLG-OH [BMAP-27]
- Outer membrane, time to 50% of final signal (E. coli ML-35p [1]; 4 μM peptide): <1 min
- Outer membrane, time to 50% of final signal (E. coli ML-35p [1]; 8 μM peptide): <1 min
- Outer membrane, time to 50% of final signal (E. coli ML-35p [1]; 16 μM peptide): <1 min
- Outer membrane, time to 50% of final signal (E. coli ML-35p [1]; 32 μM peptide): <1 min
- Inner membrane, time to 50% of final signal (E. coli ML-35p [2]; 4 μM peptide): 16 min
- Inner membrane, time to 50% of final signal (E. coli ML-35p [2]; 8 μM peptide): 9 min
- Inner membrane, time to 50% of final signal (E. coli ML-35p [2]; 16 μM peptide): 7 min
- Inner membrane, time to 50% of final signal (E. coli ML-35p [2]; 32 μM peptide): 5 min
- Toxicity MTC (minimum toxic concentration) ([3]; U937, complete suppression of cell growth after four days): 4.0 µM

Substance: KKKIIIIIIKKK [O1]
- MIC E. coli (E. coli DH5α): 8 µM
- MIC S. xylosus (Staphylococcus xylosus): 0.5 µM
- Toxicity LD50 [4]: >64 µM
- Toxicity MTC (minimum toxic concentration) [3]: >64 µM
- Effect on eukaryotic U937 cells in mixed culture (human cell line U937): remain uninfluenced
